In ChEMBL document CHEMBL4627353, “Synthesis of novel dual target inhibitors of PARP and HSP90 and their antitumor activities” (Bioorg Med Chem, 2020):
Activity calls are given as the source filed them. The calls are words filed in the database; no cut-off is given here.

Columns and labels:
MX1 = assay: Antiproliferative activity against BRCA1-deficient human MX1 cells after 48 hrs by MTT assay; type: functional, cell-based; details: MX1, 48 h
MCF7 [1] = assay: Antiproliferative activity against BRCA-proficient human MCF7 cells after 48 hrs by MTT assay; type: functional, cell-based; details: MCF7, 48 h
HCC1937 [2] = assay: Antiproliferative activity against BRCA1-deficient human HCC1937 cells after 48 hrs by MTT assay; type: functional, cell-based; details: HCC1937, 48 h
MDA-MB-231 = assay: Antiproliferative activity against BRCA-proficient human MDA-MB-231 cells after 48 hrs by MTT assay; type: functional, cell-based; details: MDA-MB-231, 48 h
SK-BR-3 = assay: Antiproliferative activity against BRCA-proficient human SKBR3 cells after 48 hrs by MTT assay; type: functional, cell-based; details: SK-BR-3, 48 h
CAPAN-1 = assay: Antiproliferative activity against BRCA2-deficient human Capan1 cells after 48 hrs by MTT assay; type: functional, cell-based; details: CAPAN-1, 48 h
Heat shock protein HSP90 [3] = molecular target: T1, Heat shock protein HSP90 (Homo sapiens, UniProt P07900+P08238)
Description: Binding affinity to HSP90 (unknown origin) by Line weaver-Burk plot analysis

Heat shock protein HSP90 [4] = molecular target: T1, Heat shock protein HSP90; remark: listed apart in the source
Description: Binding affinity to HSP90 (unknown origin) assessed as quenching constant by Stern-Volmer plot analysis

MCF7 [5] = assay: Inhibition of PARP in human MCF7 cells assessed as down regulation of PAR at 1 to 100 uM in presence of adriamycin by western blotting analysis; type: cell-based
Heat shock protein HSP90 [6] = molecular target: T1, Heat shock protein HSP90; remark: listed apart in the source
Description: Binding affinity to HSP90 (unknown origin) assessed as Stern-Volmer quenching constant by Stern-Volmer plot analysis

Heat shock protein HSP90 [7] = molecular target: T1, Heat shock protein HSP90; assay: Binding affinity to HSP90 (unknown origin) by fluorescence quenching method; type: protein assay
HCC1937 [8] = assay: Potency index, ratio of compound IC50 to Olaparib IC50 for antiproliferative activity against human HCC1937 cells; type: functional
MCF7 [9] = assay: Potency index, ratio of compound IC50 to Olaparib IC50 for antiproliferative activity against human MCF7 cells; type: functional
Heat shock protein HSP90 [10] = molecular target: T1, Heat shock protein HSP90; assay: Inhibition of HSP90 in human MDA-MB-231 cells assessed as down regulation of BRCA1 protein expression at 1 to 100 uM in presence of adriamycin by western blotting analysis; type: cell-based
Heat shock protein HSP90 [11] = molecular target: T1, Heat shock protein HSP90; assay: Inhibition of HSP90 (unknown origin) by fluorescence quenching method; type: protein assay

| SMILES | IC50 (MX1) [µM] | IC50 (MCF7 [1]) [µM] | IC50 (HCC1937 [2]) [µM] | IC50 (MDA-MB-231) [µM] | IC50 (SK-BR-3) [µM] | IC50 (CAPAN-1) [µM] | Ka (Heat shock protein HSP90 [3]) [×10⁵ L/mol] | Kq (Heat shock protein HSP90 [4]) [×10¹² L/mol/s] | inhibition (MCF7 [5]) | KSV (Heat shock protein HSP90 [6]) [×10⁴ L/mol] | Kd (Heat shock protein HSP90 [7]) [µM] | Ratio IC50 (HCC1937 [8]) | Ratio IC50 (MCF7 [9]) | inhibition (Heat shock protein HSP90 [10]) | IC50 (Heat shock protein HSP90 [11]) [µM] |
| --- | --- | --- | --- | --- | --- | --- | --- | --- | --- | --- | --- | --- | --- | --- | --- |
| COc1cc(/C=C2\CN(C(=O)c3cc(Cc4n[nH]c(=O)c5ccccc45)ccc3F)C/C(=C\c3cc(OC)c(OC)c(OC)c3)C2=O)cc(OC)c1OC | 34.6 | > 200 | 65.3 | > 200 | > 200 | 118 |  |  |  |  |  |  |  |  |  |
| O=C(c1cc(Cc2n[nH]c(=O)c3ccccc23)ccc1F)N1CCN(C(=O)C2CC2)CC1 [OLAPARIB] | 35.8 | > 200 | > 200 | > 200 | 232 | 83.1 |  |  |  |  |  |  |  |  |  |
| O=C1/C(=C/c2cccc(F)c2)CN(C(=O)c2cc(Cc3n[nH]c(=O)c4ccccc34)ccc2F)C/C1=C\c1cccc(F)c1 | 2.39 | 1.46 | 10.6 | 5.17 | > 200 | 1.68 |  |  |  |  |  |  |  |  |  |
| O=C1/C(=C/c2ccc(F)cc2)CN(C(=O)c2cc(Cc3n[nH]c(=O)c4ccccc34)ccc2F)C/C1=C\c1ccc(F)cc1 | > 200 | 173 | 36.1 | > 200 | > 200 | > 200 |  |  |  |  |  |  |  |  |  |
| O=C1/C(=C/c2cccnc2)CN(C(=O)c2cc(Cc3n[nH]c(=O)c4ccccc34)ccc2F)C/C1=C\c1cccnc1 | 2 | > 200 | 5.3 | 7.6 | 15.9 | 82.8 | 4.89 | 4.43 | Active | 3.58 | 28.257 | 40 |  |  |  |
| O=C1/C(=C/c2ccc3c(c2)OCO3)CN(C(=O)c2cc(Cc3n[nH]c(=O)c4ccccc34)ccc2F)C/C1=C\c1ccc2c(c1)OCO2 | 13.9 | 25.8 | 44.7 | 21.1 | > 200 | 32 |  |  |  |  |  |  |  |  |  |
| O=C1/C(=C/c2ccccn2)CN(C(=O)c2cc(Cc3n[nH]c(=O)c4ccccc34)ccc2F)C/C1=C\c1ccccn1 | 0.1 | 1.47 | 2.88 | 0.75 | 2.83 | 37.3 | 4.88 | 4.32 | Active | 3.48 | 29.569 |  | 200 |  |  |
| O=C1/C(=C/c2ccccc2O)CN(C(=O)c2cc(Cc3n[nH]c(=O)c4ccccc34)ccc2F)C/C1=C\c1ccccc1O | 29.2 | > 200 | > 200 | > 200 | > 200 | > 200 |  |  |  |  |  |  |  |  |  |
| O=C1CCN(C(=O)c2cc(Cc3n[nH]c(=O)c4ccccc34)ccc2F)CC1 | > 200 | > 200 | > 200 | > 200 | > 200 | > 200 |  |  |  |  |  |  |  |  |  |
| O=C1/C(=C/c2ccccc2F)CN(C(=O)c2cc(Cc3n[nH]c(=O)c4ccccc34)ccc2F)C/C1=C\c1ccccc1F | 3.62 | 2.05 | 16.1 | 7.63 | > 200 | 2.02 |  |  |  |  |  |  |  |  |  |
| O=C1/C(=C/c2ccncc2)CN(C(=O)c2cc(Cc3n[nH]c(=O)c4ccccc34)ccc2F)C/C1=C\c1ccncc1 | 0.1 | 0.97 | 2.72 | 4.38 | 2.53 | 0.202 |  |  | Active |  | 39.975 |  | 200 | Active | 0.97 |
| O=C1/C(=C/c2ccc(Cl)cc2)CN(C(=O)c2cc(Cc3n[nH]c(=O)c4ccccc34)ccc2F)C/C1=C\c1ccc(Cl)cc1 | 4.23 | 1.21 | 3.84 | 8 | > 200 | 1.78 |  |  |  |  |  |  |  |  |  |
